≈ marks a conversion by molar mass, not a printed value. Entries after “also recorded” stand apart in the source; their conditions may differ. Read-outs that look alike come from different tables or passages of the source. Square brackets hold non-standard residues; d marks the D form. Ends that are not written are not given here. Peptide text beside a SMILES is read from it. AEEA = NCCOCCOCC(=O)O
Experiments:
Pseudomonas aeruginosa = type: cell-based
Experimental: (§4) Antimicrobial activity was determined using the broth microdilution method based on the general recommendation of the Clinical and Laboratory Standards Institute. Bacteria were grown in Mueller-Hinton broth at 37° C. until OD625 reached 0.06, and then bacteria were further diluted into 1:20 for later use. […] 10 microliter (μL) of diluted bacteria was mixed with 90 μL of peptides at varying concentrations followed by incubation at 37° C. for 16-18 hours. The MIC is the lowest peptide concentration at which visible growth was inhibited. The MIC value was determined at least twice in independent experiments and typically in 3-4 assays.

Cultured human cells = assay: MTT cytotoxicity assay; type: cell-based
[1] = test system: human red blood cells (hRBCs); assay: Hemolytic activity; type: cell-based
Experimental: The amount of hemoglobin released was measured by the absorbance at 435 nm after a 60-minute incubation with the antimicrobial peptide. The percentage of hRBC lysis was normalized to the amount hemoglobin released by the suspension of the hRBCs in deionized water. The background amount of hRBC lysis was determined by adding phosphate buffered saline (PBS) at the same volume as 8 μM of the peptide to the hRBC for 1 h.
The hemolytic activities of peptides were determined using human red blood cells (hRBCs) (Innovative Research, Inc., cat. # IPLA-WB3-18103). The hRBCs were washed three times with PBS and then resuspended in PBS. The hRBCs solution was mixed with serial dilutions of the peptides in PBS buffer. The reaction mixtures were incubated for 45 min at 37° C. After centrifugation at 94×g for 10 min, the intact hRBCs were pelleted and the hemoglobin released from hRBCs was monitored by measuring the absorbance of the supernatant at 415 nm. The background level of absorbance was measured in sampled incubated with only PBS buffer. 100% hemolysis was determined in sampled incubated with water. The percentage of hemolysis was calculated according to the following equation. Percentage of hemolysis=[(Asample−Ablank)/Awater]*100%
Mammalian cells are thought to be less susceptible to cathelicidin peptides in part because the composition of their membrane will be less likely to interact with the peptides. To address this directly, human red blood cells (hRBCs) were tested for lysis after a 45-minute incubation with the peptides. The total lysis of hRBCs was determined by adding water to the cells. The amount of lysis during handling was determined by the addition of phosphate buffered saline at the same volume as that of the peptides.

19 Gram-negative strains = assay: MIC panel, number of strains inhibited; type: cell-based; conditions: of 19 Gram-negative strains
Experimental: as §4

[2] = Toxicity of peptides injected intraperitoneally; type: in vivo, mice; conditions: intraperitoneal, 10 or 20 μM
Experimental: (§1) FIGS. 23A, B show the efficacy and toxicity of modified peptides in mice. […] The survival of mice injected intraperitoneally with iron dextran at 48 h after intraperitoneal injection of 10 or 20 μM of the modified peptides. […] Vibrio vulnificus (V. v.) strain CMCP6 was injected at 1×10^6 CFU. […] All mice receive iron dextran by intraperitoneal injection. Where indicated, 1 h later 10^6 bacterial CFU in 100 μL was injected into the peritoneum (opposite side). 1 h later, 100 μL of the peptide at the indicated concentration was administered on the same side as the bacterial injection.
(§2) Since B22a was effective in preventing infection of V. vulnificus in a surgical incision model, we tested it for efficacy for systemic infection in a mouse septicemia model (1). Groups of mice (strain CD-1) were first injected with […], followed 1 h later with an intraperitoneal injection of 1×10e6 colony forming units of V. vulnificus strain […]. The B22a was then injected intraperitoneally 1 h later and morbidity was monitored hourly for two days.
PB22N and other modified peptides were tested in a septicemic mouse model. V. vulnificus is a highly-pathogenic bacterium, causing septicemia and high mortality. In mice injected intraperitoneally with V. vulnificus, the majority of the mice had to be euthanized within 24 h due to severe symptoms associated with septicemia (FIG. 23B). […] PB22N was effective in preventing mice from succumbing to systemic infection by the highly virulent V. vulnificus.

V. vulnificus = assay: Iron-dextran septicemia model; type: in vivo, mice (strain CD-1); conditions: 10 or 20 μM intraperitoneally 1 h after V. vulnificus
Experimental: as §1, §2
PB22N and other modified peptides were tested in a septicemic mouse model. V. vulnificus is a highly-pathogenic bacterium, causing septicemia and high mortality. In mice injected intraperitoneally with V. vulnificus, the majority of the mice had to be euthanized within 24 h due to severe symptoms associated with septicemia (FIG. 23B). […]

[3] = test system: twenty representative Gram-negative bacteria of the Enterobacteriacea; assay: MIC panel; type: cell-based; conditions: Table 10
From the text: The lack of efficacy of B22a in inhibiting systemic bacterial infection may have been due to it not being sufficiently stable in vivo. Therefore, three peptides were synthesized that contain the B22 amino acid sequence with additional modifications. Peptide AB22a (SEQ ID No. 32) has an N-terminal acetyl group (CH3C(O)) and a C-terminal amide (NH2). Peptide AB22P (SEQ ID No. 33) has an N-terminal acetyl group and a C-terminal polyethyleneglycol (PEG) (PEG=conjugated 8-amino 3,6-dioxaoctanoic acid). Peptide PB22N (SEQ ID No. 34) has a PEG at the N-terminus. In vitro, PB22N was effective in inhibiting the growth of the majority of the Gram-negative bacteria of the Enterobacteriacea. […] PB22N was also efficacious in inhibiting antibiotic-resistant clinical isolates of Klebsiella pneumoniae (Table 11).

E. coli Top10pHNSHP45 = assay: Killing of colistin-resistant E. coli harboring mcr-1 plasmid; type: cell-based, Escherichia coli; conditions: for Reduction of Top10pHNSHP45 colony formation: 5 minute incubation (FIG. 12B)
Experimental: 1×10^5 CFUs of the bacteria were incubated for 30 min with the concentration of the peptides or colistin shown. Approximately 500 CFUs were then added as a droplet onto nonselective media for 18 h. […] The numbers are the means of three independent assays and those in parenthesis are the range for one standard deviation.
Each antimicrobial peptide was assayed at a final concentration of 2 μM. The number of viable bacterial colonies were determined by plating on a non-selective media and enumerated. Each result is the average of three independent assays. The fold reduction in the colony forming units (CFU) was calculated by dividing the number of CFUs in the mock-treated sample with the number in the peptide-treated samples.

P. aeruginosa PAO1 = assay: Bactericidal activity, viable colony formation; type: cell-based, Pseudomonas aeruginosa; conditions: for Viable colony formation, P. aeruginosa PAO1 / Fold reduction, P. aeruginosa PAO1: 2 μM peptide for 30 min; for Fold reduction, P. aeruginosa PAO1: versus mock
Experimental: (§3) The broth dilution assay tested for the inhibition of growth. To determine whether B22a has bactericidal activity, viable colonies that formed after bacteria were treated with 2 μM of B22a for 30 min were enumerated (Table 7). Peptide B22a reduced viable colony formation by E. coli by over 2 orders of magnitude. B22a reduced viable colony formation by P. aeruginosa by over 3 orders of magnitudes. B22a, like its predecessor B22, is a bactericidal for Gram-negative bacteria.

E. coli ATCC 25922 = assay: Bactericidal activity, viable colony formation; type: cell-based, Escherichia coli; conditions: for Viable colony formation, E. coli ATCC 25922 / Fold reduction, E. coli ATCC 25922: 2 μM peptide for 30 min; for Fold reduction, E. coli ATCC 25922: versus mock
Experimental: as §3

V. fischeri = assay: Vibrios killing activity; type: cell-based; conditions: increasing concentrations of SMAP-29C
Experimental: (§5) Vibrios bacteria such as V. angustum or V fischeri were cultured in LM at 30° C. The V. angustum culture was 200× diluted, V. fischeri culture was 40× diluted. […] The peptides were incubated with the bacteria for 1 hour at 30° C. before plated into the bacteria culture (100 μL peptides and 20 μL mock). The cultures were incubated overnight and Colony Forming Units (CFUs) were counted.

V. harveyi = assay: Vibrio growth with increasing peptide concentration; type: cell-based; conditions: increasing concentrations of SMAP-29C
Experimental: Bacteria within Vibrio genus are highly sensitive to the SMAP-29C peptide. Various strains of Vibrio were treated with increasing concentrations of SMAP-29C (See FIG. 7).

V. angustum = assay: Vibrios killing activity; type: cell-based; conditions: increasing concentrations of SMAP-29C
Experimental: as §5

P. aeruginosa = assay: Growth rate of culture, optical density; type: cell-based, Pseudomonas aeruginosa; conditions: 30 nM peptide
Experimental: FIG. 21 is a graph showing of peptide B22 (mock), B22a and B22m1 (each at […]) can reduce bacterial growth of P. aeruginosa, wherein the bacteria were grown in a plate reader at 37° C. and shaken. Optical density was monitored every ten (10) minutes to track the growth rate.
This low concentration of the peptide should further decrease the possibility of peptide oligomerization, as oligomerization should be dependent on the concentration of the peptide. The growth of the bacterial culture was then monitored over time. […] The cell division time of E. coli and Enterobacter cloacae were also in the absence or presence of 100 nM of B22a. The presence of B22a increased the doubling time of both bacterial by more than 2-fold. […] Should B22a and B22m1 inhibit bacteria growth as well as kill bacteria through the formation of higher order structures in the membrane, the peptides may have multiple mechanisms to act against bacteria survival. Peptides that act by multiple mechanisms may result in lower bacterial resistance to the peptides.

Toll-like receptor 3 = assay: Poly(I:C)-induced cytokine production in BEAS-2B cells, ELISA; type: cell-based, human; conditions: peptide 2 μM
Experimental: Lung epithelial BEAS-2B cells were induced with poly(I:C) at 0.1 μg/ml and the amount of IL-6 secreted into the media 20 h later was assessed by ELISA. Where present, the antimicrobial peptide was at a final concentration of 2 μM.
IL-6 production was quantified by ELISA using the OptEIA™ kit (BD Biosciences). A typical assay used 2×10^4 BEAS-2B cells/well grown for 24 h in flat-bottom 96-well plates. Poly(I:C) was added to a final concentration of 0.13 μg/ml.

Vibrio vulnificus = assay: Lethal sepsis model, surgical incision infection; conditions: no V. vulnificus
Experimental: The number of symptom-less mice in cages of 5 mice were recorded as a function of time. About 50 colony forming units of V. vulnificus were introduced into a surgical incision. The antimicrobial peptide B22 was introduced into the incision at 5 μM 1 h after the introduction of V. vulnificus to the surgical incision.
A lethal sepsis model from Vibrio vulnificus infection of CD-1 mice was selected. […] Cages of 5 mice were monitored every 2 h.

Experimental for Enterobacter cloacae: as §4
Experimental for Enterococcus faecalis: as §4
Experimental for Escherichia coli: as §4
Experimental for Klebsiella pneumoniae: as §4
Experimental for Serratia marcescens: as §4
Experimental for Staphylococcus aureus: as §4

GRFKRLRKKLKKLFKKLSPVIPLLHLG [BMAP-27B]
MIC (Pseudomonas aeruginosa): 4 µM | Minimal inhibitory concentration (Pseudomonas aeruginosa): 4 µM | Cytotoxicity, MTT assay (Cultured human cells): no increased cytotoxicity compared to the controls | MIC (Staphylococcus aureus): >64 µM | RBC lysis [1]: decreased RBC lysis compared to the control H2O | MIC (Enterobacter cloacae): 4 µM | Minimal inhibitory concentration (Enterobacter cloacae): 4 µM

LLGDFFRKSKEKIGKEFKRIVQRIKDFLR [LL-29]
Number of strains inhibited at 16 μg/ml (19 Gram-negative strains): 4/19

CC[C@H](C)[C@H](NC(=O)[C@@H](NC(=O)[C@@H]1CCCN1C(=O)[C@H](CO)NC(=O)[C@H](CC(C)C)NC(=O)[C@H](CCCCN)NC(=O)[C@H](CCCCN)NC(=O)[C@H](Cc1ccccc1)NC(=O)[C@H](CC(C)C)NC(=O)[C@H](CCCCN)NC(=O)[C@H](CCCCN)NC(=O)[C@H](CC(C)C)NC(=O)[C@H](CCCCN)NC(=O)[C@H](CCCCN)NC(=O)[C@H](CCCNC(=N)N)NC(=O)[C@H](Cc1ccccc1)NC(=O)COCCOCCN)C(C)C)C(=O)N1CCC[C@H]1C(=O)N[C@@H](CC(C)C)C(=O)N[C@@H](CC(C)C)C(=O)N[C@@H](CCCCN)C(=O)N[C@@H](CC(C)C)C(=O)NCC(N)=O [PB22N] (H-[AEEA]FRKKLKKLFKKLSPVIPLLKLG-NH2)
Toxicity signs in mice injected with peptide [2]: no obvious symptoms were observed; also recorded: no obvious effects on mice behavior or appearance | Minimal inhibitory concentration (Pseudomonas aeruginosa): 1 µM (≈ 2.74 µg/mL) | Outcome in mouse septicemia model (V. vulnificus): survived and did not exhibit symptoms of infection | Minimal inhibitory concentration (Escherichia coli): 1 µM | Minimal inhibitory concentration (Klebsiella pneumoniae): 1 µM (≈ 2.74 µg/mL) | MICs relative to B22a [3]: approximately two-fold better

RLGNFFRKVKEKIGGGLKKVGQKIKDFLGNLVPRTAS [RL-37]
Number of strains inhibited at 16 μg/ml (19 Gram-negative strains): 7/19

Colistin [reference compound]
MIC (Klebsiella pneumoniae; Table 8, clinical isolate 262 (NDM1+)): > 8 µg/mL | MIC (Klebsiella pneumoniae; Table 8, clinical isolate 284): 16 µg/mL | MIC (Klebsiella pneumoniae; Table 8, clinical isolate 330): > 16 µg/mL | MIC (Klebsiella pneumoniae; Table 8, clinical isolate 361): > 16 µg/mL | MIC (Klebsiella pneumoniae; Table 11, clinical isolate 265): >8 µg/mL | MIC (Klebsiella pneumoniae; Table 11, clinical isolate 284): 16 µg/mL | MIC (Klebsiella pneumoniae; Table 11, clinical isolate 330): >16 µg/mL | MIC (Klebsiella pneumoniae; Table 11, clinical isolate 361): >16 µg/mL | Killing of E. coli Top10pHNSHP45 (E. coli Top10pHNSHP45; 2 μM, 5 minute incubation (FIG. 12A)): resistant | Reduction of Top10pHNSHP45 colony formation (E. coli Top10pHNSHP45): little effect

ARKKLKKLAKKLSPVIPLLKLG-NH2 [Peptide B22m2]
MIC (Pseudomonas aeruginosa): 4 µM | Reduction of viable colony formation by P. aeruginosa (P. aeruginosa PAO1): more than 2 logs | Viable colony formation, P. aeruginosa PAO1 (P. aeruginosa PAO1): 7.3 × 10^3 | Fold reduction, P. aeruginosa PAO1 (P. aeruginosa PAO1): 164 | MIC (Escherichia coli): 4 µM | Viable colony formation, E. coli ATCC 25922 (E. coli ATCC 25922): 8.7 × 10^4 | Fold reduction, E. coli ATCC 25922 (E. coli ATCC 25922): 9

GLRKKFRKTRKRIQKLGRKIGKTGRKVWKAWREYGQIPYPCRI [CAP-11, reference compound]
Minimal inhibitory concentration (Escherichia coli): >32 µg/mL | Number of strains inhibited at 16 μg/ml (19 Gram-negative strains): 16/19

RGLRRLGRKIAHGVKKCGPTVLRIIRIAGC [SMAP-29C]
Growth of V. fischeri (V. fischeri): growth reduction correlation to the concentration of SMAP-29C | Growth of V. harveyi (V. harveyi): growth reduction correlation to the concentration of SMAP-29C | Growth of V. angustum (V. angustum): growth reduction correlation to the concentration of SMAP-29C | Reduction of Top10pHNSHP45 colony formation (E. coli Top10pHNSHP45): several logs

CC[C@H](C)[C@H](NC(=O)[C@@H](NC(=O)[C@@H]1CCCN1C(=O)[C@H](CO)NC(=O)[C@H](CC(C)C)NC(=O)[C@H](CCCCN)NC(=O)[C@H](CCCCN)NC(=O)[C@H](Cc1ccccc1)NC(=O)[C@H](CC(C)C)NC(=O)[C@H](CCCCN)NC(=O)[C@H](CCCCN)NC(=O)[C@H](CC(C)C)NC(=O)[C@H](CCCCN)NC(=O)[C@H](CCCCN)NC(=O)[C@H](CCCNC(=N)N)NC(=O)[C@H](Cc1ccccc1)NC(C)=O)C(C)C)C(=O)N1CCC[C@H]1C(=O)N[C@@H](CC(C)C)C(=O)N[C@@H](CC(C)C)C(=O)N[C@@H](CCCCN)C(=O)N[C@@H](CC(C)C)C(=O)NCC(=O)NCCOCCOCC(=O)O [AB22P] (Ac-FRKKLKKLFKKLSPVIPLLKLG[AEEA]-OH)
Toxicity signs in mice injected with peptide [2]: no obvious symptoms were observed; also recorded: no obvious effects on mice behavior or appearance

FRKKLKKLFKKLSPVIPLLKLG-NH2 [Peptide B22a]
Toxicity signs in mice injected with peptide [2]: did not exhibit distress or signs of toxicity | MIC (Pseudomonas aeruginosa): 2 µM | Minimal inhibitory concentration (Pseudomonas aeruginosa): 2 µM | MIC (Escherichia coli): 2 µM | Minimal inhibitory concentration (Klebsiella pneumoniae): 2 µM | Minimal inhibitory concentration (Serratia marcescens): >32 µM | Minimal inhibitory concentration (Enterobacter cloacae): 4 µM

FRKKLKKLAKKLSPVIPLLKLG-NH2 [Peptide B22m1]
MIC (Pseudomonas aeruginosa): 2 µM | Killing of P. aeruginosa compared with B22a (P. aeruginosa PAO1): comparable killing | Viable colony formation, P. aeruginosa PAO1 (P. aeruginosa PAO1): <20 | Fold reduction, P. aeruginosa PAO1 (P. aeruginosa PAO1): >6000 | MIC (Escherichia coli): 2 µM | Growth rate of P. aeruginosa (P. aeruginosa): perceptibly reduced | Killing of E. coli compared with B22a (E. coli ATCC 25922): comparable killing | Viable colony formation, E. coli ATCC 25922 (E. coli ATCC 25922): 4.7 × 10^5 | Fold reduction, E. coli ATCC 25922 (E. coli ATCC 25922): 170

GRFKRFRKKLKKLFKKLSPVIPLL [BMAP-24]
MIC (Enterococcus faecalis): 4 µM | IL-6 production (Toll-like receptor 3): do not enhance | IL-8 production (Toll-like receptor 3): do not enhance | MIC (Staphylococcus aureus): >64 µM | MICs for two strains of S. aureus (Staphylococcus aureus): ≥ 64 µM | MICs with the carbapenem-resistant K. pneumoniae (Klebsiella pneumoniae): ≤ 4 µM | Viable colonies of Top10pHNSHP45 relative to BMAP27B (E. coli Top10pHNSHP45; 2 μM (FIG. 13)): reduced the number of viable colonies relative to BMAP27B | MIC (Enterobacter cloacae): 2 µM

FRKKLKKLFKKLSPVIPLLKLG [Peptide B22]
MIC (Pseudomonas aeruginosa): 2 µM | MIC (Enterococcus faecalis): >32 µM | MIC (Staphylococcus aureus): >64 µM | MICs for two strains of S. aureus (Staphylococcus aureus): ≥ 64 µM | MICs with the carbapenem-resistant K. pneumoniae (Klebsiella pneumoniae): ≤ 4 µM | Symptoms of mice treated with B22 alone (Vibrio vulnificus): no symptom throughout the experiment | Minimal inhibitory concentration (Serratia marcescens): >32 µM | MIC (Enterobacter cloacae): 2 µM | Minimal inhibitory concentration (Enterobacter cloacae): 4 µM

From patent US10624947B2, “Bactericidal peptides and uses thereof” (INDIANA UNIVERSITY RESEARCH AND TECHNOLOGY CORPORATION, priority 2016, dated 2020)
